Patent US6852706B1, “Methods and compositions for healing heart wounds” (The Wistar Institute, priority 2000, dated 2005)

Key:
C57B1/6 mice = test system: C57B1/6 mice
Method: Cardiac injury. Myocardial injury is cryogenically initiated, employing a technique adapted from Taylor et al. (1998) (ref 28). Adult MRL and C57B1/6 mice (6-8 weeks of age) were anaesthetized using an intraperitoneal injection of ketamine (100 mg/kg) and xylazine (15 mg/kg). A 2 mm diameter blunt probe cooled to the temperature of liquid Nitrogen is then introduced, trans-diaphragmatically, to the right ventricular surface of the heart.
Access to the diaphragm was accomplished by a 6-8 mm incision made through the skin on the ventral surface of the abdomen below the ribcage approximately 5 mm posterior to—and approximately 5 mm to the left of the ventral midline—the sternum. The underlying musculature was incised to an equivalent extent. The diaphragm was exposed using forceps to retract the medial lobe of the liver. The right ventricular surface of the heart was thus presented directly adjacent to, and clearly visible through, the diaphragm. Injury to the heart was achieved by holding the cryoprobe in contact with the diaphragmatic surface for 10 seconds and repeated using a second, identical cryoprobe. The abdominal musculature was then repositioned and closed using 6-0 […] suture. The 6-0 nylon suture was also used for skin closure.
Histology Frozen sections: Hearts were removed and frozen in isopentane cooled to −160° C. in liquid nitrogen. Eight micron-thick sections were cut for immunohistochemistry and histology. Fixed sections: Hearts were fixed in Prefer Fixative (Anatheh Ltd.). Paraffin-embedded sections cut to a thickness of 5 microns were used for both histology and immunohistochemistry.
We also treated nonhealer C57B1/6 mice with PTU, which is known to inhibit thyroid activity.

B6 mouse = conditions: 15 days after PTU treatment
MRL mice = experiment: Cryo-injury of the heart in MRL (healer) mice given slow-release T3 pellets; format: in vivo, mouse; conditions: pellets containing 0.01 mg T3, slow release (21 days), 0.0005 mg/day, injured one day later
Method: The underlying musculature was incised to an equivalent extent.
To determine whether administering T3 to MRL mice inhibits healing of ear and heart wounds, we placed pellets containing 0.01 mg of T3 in a slow release formulation (21 days) in MRL mice. Via these pellets, the mice received 0.0005 mg/day of T3 . Mice were injured one day later.

[1] = wounded C57B1/6 mice pretreated with PTU

Compound | Heart wound healing and epithelial growth at larger concentrations (C57B1/6 mice; C57B1/6 mice, PTU 2 or 3 mg/day) | Epithelial layer versus untreated C57B1/6 mice (C57B1/6 mice; [1]) | Growth of myocardium versus untreated C57B1/6 mice (C57B1/6 mice; [1]) | Ear hole size versus untreated B6 ear holes (B6 mouse) | Proliferation in ear hole wound (B6 mouse) | Healing of heart wound (MRL mice) | Heart wound scarring / fibrotic tissue (MRL mice; by day 15)
CCCc1cc(=O)[nH]c(=S)[nH]1 [PTU, propylthiouracil] | better healing and greater epithelial growth | more intact epithelial layer | significantly greater growth of myocardium | smaller | impressive degree of epithelial proliferation, as well as muscle and adipocyte proliferation |  | 
N[C@@H](Cc1cc(I)c(Oc2ccc(O)c(I)c2)c(I)c1)C(=O)O [T3] |  |  |  |  |  | never healed | severely scarred, with a large degree of fibrotic tissue
